Measured values from patent US20190224214A1, “HUMAN GHRELIN O-ACYLTRANSFERASE INHIBITORS” (SYRACUSE UNIVERSITY, priority 2016, published 2019).
Like-named read-outs stand apart in the source and are kept apart here. One block for each molecule: values may come before it.

Key:
hGOAT [1] = molecular target: T1, hGOAT (Homo sapiens, UniProt Q96T53); assay: fluorescence-based in vitro hGOAT activity assay (ghrelin octanoylation, HPLC readout); format: biochemical
T1 construct: made in house; host or cells: Sf9 insect cells (membrane fraction)
T1 sequence (Q96T53 1-435): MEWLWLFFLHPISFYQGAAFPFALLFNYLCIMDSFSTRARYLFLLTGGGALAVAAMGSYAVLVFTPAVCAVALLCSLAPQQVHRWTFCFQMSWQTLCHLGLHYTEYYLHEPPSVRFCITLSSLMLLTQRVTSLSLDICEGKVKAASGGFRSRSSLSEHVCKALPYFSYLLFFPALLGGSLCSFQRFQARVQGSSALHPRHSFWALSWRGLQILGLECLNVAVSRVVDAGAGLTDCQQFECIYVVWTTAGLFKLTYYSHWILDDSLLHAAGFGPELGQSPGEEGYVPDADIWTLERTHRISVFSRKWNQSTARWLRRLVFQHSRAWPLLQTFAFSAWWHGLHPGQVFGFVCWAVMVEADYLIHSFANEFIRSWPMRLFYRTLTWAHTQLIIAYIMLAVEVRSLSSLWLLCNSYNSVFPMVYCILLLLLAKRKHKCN
Description: hGOAT was expressed and enriched in insect (Sf9) cell membrane fractions using a previously published procedure.
Peptide substrates were labeled with acrylodan on a cysteine thiol and HPLC purified as previously reported.
hGOAT activity assays were performed using a modification of previously reported protocols. For each assay, membrane fraction from Sf9 cells expressing hGOAT was thawed on ice and passed through an 18-gauge needle 10 times to homogenize. Assays were performed with ˜100 μg of membrane protein, as determined by Bradford assay. Membrane fraction was preincubated with 1 μM methoxy arachadonyl fluorophosphonate (MAFP) and inhibitor or vehicle as indicated in 50 mM HEPES pH 7.0 for 30 minutes at room temperature. Reactions were initiated with the addition of 500 µM octanoyl CoA and 1.5 μM fluorescently-labeled ghrelin mimetic, GSSFLCAcrylodan, for a total volume of 50 μL, and were incubated for 3 hours at room temperature in the dark. Reactions were stopped with the addition of 50 μL of 20% acetic acid in isopropanol, and solutions were clarified by protein precipitation with 16.7 μL of 20% trichloroacetic acid, followed by centrifugation (1,000×g, 1 minute). The supernatant was then analyzed by reverse phase HPLC, as previously described. Data reported are the average of three independent determinations, with error bars representing one standard deviation.
For inhibition experiments, reactions were performed and analyzed as described in the presence of either inhibitor or vehicle (DMSO or ethanol) as appropriate. The percent activity at each inhibitor concentration calculated from HPLC data using equations 1 and 2: […]
To determine the IC50 value, the plot of % activity versus [inhibitor] was fit to equation 3, with % activity0 denoting hGOAT activity in the presence of the vehicle alone: […]

hGOAT [2] = molecular target: T1, hGOAT; assay: Inhibitor reversibility assay (10-fold dilution after pretreatment at 3x IC50); format: biochemical; conditions: pretreatment at 3x IC50, then 10-fold dilution
Description: The reversibility of hGOAT inhibition by the α-cyanoenone compounds 3 and 9 was determined by enzyme pretreatment with each inhibitor at three times the measured IC50 concentration, followed by a 10-fold dilution into either reaction buffer or buffer containing the same inhibitor concentration as the pretreatment.
Undiluted homogenized membrane protein fraction containing hGOAT (protein concentration ˜7 μg/μL) was incubated with 10 μM MAFP and 3×IC50 of inhibitor or equal volume vehicle (DMSO or ethanol) for 30 minutes at room temperature. […] Reactions were incubated for 3 hours at room temperature in the dark and then analyzed as described above.

[3] = hGOAT activity, individual trials, read-out: IC50 (individual trials)
[4] = read-out: IC50, inhibition of hGOAT activity
[5] = unit inferred, read-out: IC50, inhibition of hGOAT
[6] = hGOAT activity, averaged, read-out: IC50 (averaged)

SMILES: O=C1C=CCCC1 [Compound 18, cyclohexenone, reference compound]
inhibition of hGOAT activity (in words) (hGOAT [1]; at concentrations up to 1 mM): does not inhibit hGOAT activity

SMILES: C[C@@]12CCC[C@H]1[C@@H]1CC[C@H]3CC(=O)C(C#N)=C[C@]3(C)[C@H]1CC2 [Compound 9, (5S,8S,9S,10S,13S,14S)-10,13-dimethyl-3-oxo-4,5,6,7,8,9,10,11,12,13,14,15,16,17-tetradecahydro-3H-cyclopenta[a]phenanthrene-2-carbonitrile]
IC50 (hGOAT [1]; [3]): 7 ± 3 µM | IC50 (hGOAT [1]; [4]): 8 ± 2 µM | enhancement of inhibitor potency against hGOAT by the steroid scaffold (hGOAT [1]; α-cyanoenone 9 versus 16): ~150 fold | reversibility of hGOAT inhibition (hGOAT [2]): reversible hGOAT inhibition

inhibition of hGOAT octanoylation activity (in words) (hGOAT [1]): lack of inhibition activity
SMILES: CC1(C)CC[C@]2(C(=O)O)CC[C@]3(C)[C@H](C(=O)C=C4[C@@]5(C)C=C(C#N)C(=O)C(C)(C)[C@@H]5CC[C@]43C)[C@@H]2C1 [Compound 5, reference compound]

SMILES: N#CC1=CCCCC1=O [Compound 16, 6-oxocyclohex-1-enecarbonitrile]
IC50 (hGOAT [1]; read-out: IC50, inhibition of hGOAT): 1200 ± 200 µM

SMILES: CCN1C(=O)C=CC1=O [NEM, N-ethylmaleimide]
inhibition of hGOAT octanoylation activity (in words) (hGOAT [1]): efficiently inhibits hGOAT | reversibility of hGOAT inhibition (hGOAT [2]): classical irreversible hGOAT inhibition

IC50 (hGOAT [1]; [5]): 500 ± 100 µM
SMILES: O=C1CCCC=C1Br [Compound 17, 2-bromocyclohex-2-enone]

SMILES: C[C@@]12CCC[C@H]1[C@@H]1CC[C@H]3CC(=O)CC[C@]3(C)[C@H]1CC2 [Compound 12, (5S,8S,9S,10S,13S,14S)-10,13-dimethyltetradecahydro-1H-cyclopenta[a]phenanthren-3(2H)-one]
inhibition of hGOAT octanoylation activity (in words) (hGOAT [1]): loss of inhibition

SMILES: CC1(C)CC[C@]2(C(=O)n3ccnc3)CC[C@]3(C)[C@H](C(=O)C=C4[C@@]5(C)C=C(C#N)C(=O)C(C)(C)[C@@H]5CC[C@]43C)[C@@H]2C1 [CDDO-Im, 1[2-cyano-3,12-dioxooleana-1,9-dien-28-oyl]imidazole, reference compound]
IC50 (hGOAT [1]; [4]): 38 ± 6 µM

SMILES: C[C@@]12CCC[C@H]1[C@@H]1CC[C@H]3CC(=O)C(Br)=C[C@]3(C)[C@H]1CC2 [Compound 10, (5 S,8S,9S,10S,13S,14S)-10,13-dimethyl-3-oxo-4,5,6,7,8,9,10,11,12,13,14,15,16,17-tetradecahydro-3H-cyclopenta[a]phenanthrene-2-bromide]
IC50 (hGOAT [1]; [6]): 83 ± 29 µM | IC50 (hGOAT [1]; [3]): 84 ± 35 µM | melting point: 111 to 116 °C

IC50 (hGOAT [1]; [4]): 8 ± 4 µM | reversibility of hGOAT inhibition (hGOAT [2]): reversible hGOAT inhibition
SMILES: CCNC(=O)[C@]12CCC(C)(C)C[C@H]1[C@H]1C(=O)C=C3[C@@]4(C)C=C(C#N)C(=O)C(C)(C)[C@@H]4CC[C@@]3(C)[C@]1(C)CC2 [CDDO-EA]

SMILES: COC(=O)[C@]12CCC(C)(C)C[C@H]1[C@H]1C(=O)C=C3[C@@]4(C)C=C(C#N)C(=O)C(C)(C)[C@@H]4CC[C@@]3(C)[C@]1(C)CC2 [CDDO-Me, methyl 2-cyano-3,12-dioxooleana-1,9(11)dien-28-oate, reference compound]
inhibition of hGOAT octanoylation activity (in words) (hGOAT [1]): exhibits inhibitory activity against hGOAT

SMILES: CC1(C)CC[C@]2(C(=O)O)CC[C@]3(C)C(=CC[C@@H]4[C@@]5(C)CC[C@H](O)C(C)(C)[C@@H]5CC[C@]43C)[C@@H]2C1 [oleanic acid, reference compound]
inhibition of hGOAT activity (in words) (hGOAT [1]; at concentrations up to 100 μM): negligible inhibition

SMILES: C[C@@]12CCC[C@H]1[C@@H]1CC[C@H]3CC(=O)C=C[C@]3(C)[C@H]1CC2 [Compound 11, (2R,5S,8S,9S,10S,13S,14S)-10,13-dimethyl-4,5,6,7,8,9,10,11,12,13,14,15,16,17-tetradecahydro-3H-cyclopenta[a]phenanthren-3-one]
IC50 (hGOAT [1]; [6]): 166 ± 58 µM | IC50 (hGOAT [1]; [3]): 201 ± 107 µM | IC50 (hGOAT [1]; [5]): 170 ± 60 µM

inhibition of hGOAT activity (in words) (hGOAT [1]; at concentrations up to 100 μM): negligible inhibition
SMILES: C[C@H]1[C@H](C)CC[C@]2(C(=O)O)CC[C@]3(C)C(=CC[C@@H]4[C@@]5(C)CC[C@H](O)C(C)(C)[C@@H]5CC[C@]43C)[C@H]12 [ursolic acid, reference compound]

inhibition of hGOAT octanoylation activity (in words) (hGOAT [1]): abrogates inhibition of hGOAT
SMILES: CC(C)CCC[C@@H](C)[C@H]1CC[C@H]2[C@@H]3CCC4=CC(=O)CC[C@]4(C)[C@H]3CC[C@]12C [Compound 14, (8S,9S,10R,13R,14S,17R)-10,13-dimethyl-17-((R)-6-methylheptan-2-yl)-6,7,8,9,10,11,12,13,14,15,16,17-dodecahydro-1H-cyclopenta[a]phenanthren-3(2H)-one]

SMILES: C[C@@]12CCC[C@H]1[C@@H]1CC[C@H]3CC(=O)[C@H](Br)C[C@]3(C)[C@H]1CC2 [Compound 13, (2R,5S,8S,9S,10S,13S,14S)-2-bromo-10,13-dimethyltetradecahydro-1H-cyclopenta[a]phenanthren-3(2H)-one]
inhibition of hGOAT octanoylation activity (in words) (hGOAT [1]): unable to support inhibition

inhibition of hGOAT acylation activity (in words) (hGOAT [1]; at concentrations up to 100 (unit not given)): fails to inhibit
SMILES: CC1(C)CC[C@]2(C)CC=C3[C@]4(C)CC[C@H]5C(C)(C)[C@@H](O)CC[C@]5(C)[C@H]4CC[C@@]3(C)[C@@H]2C1 [Taraxerol, taraxerol, reference compound]
